Laboratory results as given in patent publication US7482008B1, “Human T cell reactive feline protein (TRFP) isolated from house dust and uses therefor” (Merck Patent GmbH, priority 1989, dated 2009).

Assays:
Balb/c mice = experiment: Oral rChain 1, IgG and IgE response after repeated challenge, protocol 5; type: in vivo, mouse; conditions: oral 250 μg days -7, -5, -2
Procedure: Two groups of five age-matched Balb/c were fed on days −7, −5 and −2 with 250 μg rChain 1 (Group 1) or PBS (Group 2). On day 0, the mice were challenged with 10 μg rChain 1 on alum administered i.p., and on days 47 and 78, the mice were again challenged with 25 μg rChain 1 on alum administered i.p. The antibody response was measured by ELISA (see below).
Subsequent incubations were for 1 hour at 37° C. The wells were washed with PBS containing 0.05% Tween 20 and blocked with 0.5% gelatin in PBS. Sera were diluted in PBS as noted in the individual assay and were incubated in triplicate on the washed plates. After incubation and washing, the bound mouse antibody was detected by incubation with biotinylated goat anti-mouse IgG (Southern Biotechnology Ass.). Streptavidin conjugated to horseradish peroxidase (Southern Biotechnology Associates) was added to detect antigen-bound biotinylated antibody complexes. 3,3′,5,5′-Tetramethylbenzidine peroxidase substrate (Kirkegaard & Perry Labs) was used according to directions supplied, and resulting OD (450 nm) values were determined using an ELISA reader (Bio-Tek model 310, Winooski, Vt.). […]
Antigen-bound IgE was detected similarly except using a biotinylated rat monoclonal antibody specific for mouse IgE (Baniyash et al. (1984) Eur. J. Immunol. 14:799-807). […]

human IgE = experiment: Western blot and ELISA of human IgE binding to affinity purified TRFP
Text: A protein preparation was extracted from the contents of vacuum cleaner bags by a method based on that of M. D. Chapman and co-workers. Chapman, M. D. et al., J. Immunol., 140(3): 812-818 (1988). Monoclonal antibody reactive with Fel d I, produced by Chapman and co-workers, was used to identify a protein in the preparation. de Groot, H. et al., J. Allergy Clin. Immunol., 82:778-786 (1988). Selected monoclonal antibodies (designated 1G9 and 6F9) that recognize Fel d I native protein were used to affinity purify a protein, which is referred to as human T cell reactive feline protein (TRFP) (also referred to as VCB or vacuum cleaner bag protein) from a house dust sample. This was carried out, using known techniques, by producing the desired monoclonal antibody, isolating it in large quantities from ascites and immobilizing it on Sepharose 4B (Pharmacia). The protein preparation was extracted from vacuum cleaner bags of house dust obtained from several homes with cats. Aqueous vacuum cleaner bag extract was first subjected to gel filtration and decolorization and, subsequently, affinity chromatography purification. Aqueous vacuum cleaner bag extract was passed over the monoclonal antibody-containing column and a protein species was eluted. […] The affinity purified TRFP was subjected to a number of protein chemical procedures to derive primary amino sequence data. […]

mice = experiment: Specificity of peptide-induced unresponsiveness (peptide Y vs MI-05); type: in vivo, mouse; conditions: subcutaneous injection in saline
Fel d I primed mice = experiment: Peptide Y s.c. in Fel d I primed mice, IL-2 production of lymph node cells; type: in vivo, mouse; conditions: injected subcutaneously up to fifty-six days earlier; compared to control mice
mice primed to rch1 = experiment: Duration of peptide inhibitory effects on T cell function in rCh1 primed mice; type: in vivo, mouse; conditions: FIG. 25
Procedure: Mice were injected with recombinant TRFP Chain 1 (rCh1) in Incomplete Freund's Adjuvant. Three months later all the mice were primed to rch1 as judged by their development of significant titers of anti-rch1 antibody.

[1] = test system: BDF1 mice preimmunized with TRFP; experiment: Peptide Y specific antibody ELISA of sera from TRFP-preimmunized, peptide Y tolerized mice; type: in vivo, mouse
Procedure: The serum was separated as previously described. […] Each incubation step in this protocol lasts 1 hour at 37° C. The wells were incubated with gelatin in PBS for blocking excess binding to the plate. Sera were diluted in PBS in a range from 1/300 to 1/8100 and incubated in triplicate on the plates. After rinsing, the bound mouse antibody was detected by incubation with biotinylated goat anti-mouse IgG (Southern Biotechnology Associates). Streptavidin conjugated to horse radish peroxidase (Southern Biotechnology Associates) was added to detect antigen bound biotinylated antibody-complexes. […] The data from the other sera dilutions were consistent with the data from the 1/900 sera dilution.
The sera were assayed for the presence of peptide Y specific IgM, IgE, and IgG isotypes. The ELISA used to detect antigen specific binding of IgG1, IgG2a, IgG2b, IgG3 and IgM isotypes were similar to the IgG assay described above with the only difference being the biotinylated anti-immunoglobulin used to detect the bound isotype. These assays employed biotinylated goat anti-IgG1 (#1070-08), Southern Biotechnology Associates), anti-IgG2a (#1080-08, SBA), anti-IgG2b (1090-08, SBA) […] (1100-08, SBA), and anti-IgM (1020-08, SBA). Antigens bound IgE was detected similarly, but using biotinylated EM95, a rat monoclonal antibody specific for mouse IgE. (Baniyash M, Eshhar Z, Eur J. Immunol. 14:799, 1984). Biotinylated goat anti-rat Ig was used as an added signal amplification step in the IgE ELISA. […] IgG1 was the major isotype seen in the animals which were injected with saline only, with a titer of 1/2700 for all three animals. […] The titers for IgM and IgG2b were similarly effected.

## recombinant chain 1: recombinant TRFP chain 1 expressed in E. coli
Balb/c mice
  specific IgG and IgE responses after repeated challenge with rChain 1 in alum: decreases specific IgG and IgE responses

## TRFP: human T cell reactive feline protein affinity purified from house dust; two covalently linked chains
Human IgE
  human IgE binding: bind human IgE

## peptide Y: amino acid residues 29-55 from chain 1 of TRFP (SEQ. ID. NO: 18) (KALPVVLENARILKNCVDAKMTEEDKE)
mice
  responses to MI-05: did not affect responses to MI-05
  responsiveness to peptide Y: decreased responsiveness to peptide Y
Fel d I primed mice
  IL-2 production of lymph node cells: decreased IL-2 production
Mice primed to rch1
  duration of inhibitory effects of subcutaneous peptide injection on T cell function: up to 56 days
[1]; 10 days after peptide Y/CFA challenge, sera 1/900
  IgG antibody specific for peptide Y: little antibody specific for peptide Y
[1]; mouse, in vivo
  peptide Y specific IgG2a, IgG3, or IgE: No binding above background
[1]; peptide Y tolerized animals
  peptide Y specific IgG2b: no IgG2b binding above background
  peptide Y specific serum IgM titer: 1/300
[1]; peptide Y tolerized animals (two animals / one animal)
  peptide Y specific IgG1 titer: 1/300 and no binding above background
